Our source for the TGI values is PubChem BioAssay (NCI).

SMILES strings stand for the structures.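 Protocol summary: plate cells (96-well), add compound at 5 concentrations, incubate 48 h, interpolate endpoints linearly. TGI denotes the concentration required for complete inhibition of growth.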

Assay in all cases: NCI-60 cell line screen, 48 h
The test system of experiment [1] is SN12C renal.
In experiment [2] the test system is HCT-15 colon.
Experiment [3] deals with TK-10 renal.
For experiment [4], the system named is UACC-257 melanoma.
Experiment [5] concerns HCT-116 colon.
The test system of experiment [6] is SW-620 colon.
The test system of experiment [7] is T-47D breast.
In experiment [8] the test system is OVCAR-8 ovarian.
The test system of experiment [9] is SF-268 CNS.
Experiment [10] has as its system SNB-19 CNS.

Regarding `COc1cccc(-c2cc(=O)c3cc(Cl)cnc3[nH]2)c1`, the TGI in experiment [1] is more than 100 µM; in experiment [2], 31.9 µM; in [3], more than 89.9 µM; in experiment [4], more than 100 µM; in experiment [5] it was 10.6 µM; in experiment [6], more than 100 µM. Further, the TGI was more than 100 µM in experiment [7], 43.9 µM in [8], more than 87.3 µM in experiment [9] and more than 77.2 µM in experiment [10].

For `C=CCC(CNC(=O)OCc1ccccc1)OC(=O)OCc1ccccc1` (stereo not given), the TGI in experiment [1], in experiment [2], in experiment [3], in experiment [4], in experiment [5] and in experiment [6] was more than 100 µM throughout. The TGI in [7], in experiment [8], in experiment [9] and in [10] was more than 100 µM each time.

For the compound `CC1CN=C(c2ccc(COc3ccc(C4=NCC(C)N4)cc3)cc2)N1` (stereo not given), the TGI in experiment [1] is more than 100 µM; in [2], more than 100 µM; in [3], more than 100 µM; in experiment [4], 68.3 µM; in [5] it was more than 100 µM; in experiment [6], more than 100 µM. Further, the TGI in experiment [7], in experiment [8], in experiment [9] and in [10] was more than 100 µM in each case.

Consider `CN(C)CCNc1nc2c(no[n+]2[O-])c2ccccc12`, for which the TGI in experiment [1] was more than 100 µM; in experiment [2] it was 57.4 µM; in [3] it was 63.1 µM; in experiment [4] it was 34.1 µM; in experiment [5], 52.9 µM; in experiment [6], 46 µM. Besides, the TGI is more than 100 µM in experiment [7], 32.8 µM in [8], more than 100 µM in experiment [9] and 79 µM in [10].

Turning to `OC1c2ccccc2C(O)C2OC12` (stereo not given), the TGI in experiment [1], in experiment [2], in experiment [3], in [4], in experiment [5] and in experiment [6] was more than 100 µM in each case. Besides, the TGI in experiment [7], in [8], in experiment [9] and in [10] was more than 100 µM each time.

Turning to `COc1ccc(N2C(=O)C3CC4=CC(=O)C[C@H]4[C@H]32)cc1` (stereo not given in full), the TGI in experiment [1], in experiment [2], in experiment [3], in [4], in [5] and in [6] was more than 100 µM throughout. Also, the TGI in experiment [7], in experiment [8], in experiment [9] and in experiment [10] was more than 100 µM throughout.

Consider `COc1cc2c(cc1OCCCCCOc1cc3c(cc1OC)C(=O)N1CCC[C@H]1CN3)N=C[C@@H]1CCCN1C2=O`, for which the TGI in experiment [1] was determined as 18.7 µM; in [2], 43.8 µM; in experiment [3], 63.3 µM; in experiment [4] it was 31.9 µM; in [5], 24.1 µM; in [6], 23.9 µM. Further, the TGI in experiment [7] was more than 100 µM; in [8] it was 24.2 µM; in experiment [9], 61.8 µM; in [10], more than 100 µM.

Regarding `C=C1c2nc3ccccc3n2C=C(c2ccc(OC)cc2)N1c1ccc(OCCN2CCOCC2)cc1`, the TGI was more than 100 µM in experiment [1]; more than 100 µM in experiment [2]; more than 100 µM in experiment [3]; 17.6 µM in experiment [4]; more than 100 µM in experiment [5]; more than 100 µM in [6]. For the same compound, the TGI is more than 100 µM in experiment [7], more than 100 µM in experiment [8], more than 31.9 µM in [9] and more than 100 µM in experiment [10].

On to `O=P1(c2ccccc2)C2=CCC=CC2C(c2ccccc2)N1Cc1ccccc1` (stereo not given), for which the TGI was determined as 31.5 µM in experiment [1]; 28.1 µM in experiment [2]; 35.4 µM in [3]; 34.9 µM in experiment [4]; 32.2 µM in experiment [5]; 43 µM in experiment [6]. Further, the TGI in experiment [7] turned out to be 36.8 µM; in [8], 38.1 µM; in [9] it was 30.9 µM; in [10] it was 41.2 µM.

`CCOP(=O)(OCC)C(C)(C)OC(=O)NC#N`: the TGI in [1], in experiment [2], in experiment [3], in experiment [4], in experiment [5] and in [6] was more than 100 µM throughout. The TGI in experiment [7], in experiment [8], in experiment [9] and in experiment [10] was more than 100 µM in each case.

As to `CC1=CC(=O)/C(=C/n2c(=S)[nH]c3ccccc32)C(=O)O1`, the TGI in experiment [1], in [2], in experiment [3], in experiment [4], in experiment [5] and in [6] was more than 100 µM throughout. In addition, the TGI in experiment [7], in experiment [8], in [9] and in [10] was more than 100 µM in each case.

In the case of `CC(=O)N(CN1C(=O)CCC1C(=O)O)c1ccccc1Cl` (stereo not given), the TGI in experiment [1], in experiment [2], in experiment [3], in experiment [4], in experiment [5] and in experiment [6] was more than 100 µM in each case. Further, the TGI in experiment [7], in [8], in experiment [9] and in experiment [10] was more than 100 µM each time.

For the compound `Cc1nc2c(=O)[nH]c3ccc(Cl)cc3c2o1`, the TGI in [1], in experiment [2], in [3], in experiment [4], in experiment [5] and in experiment [6] was more than 100 µM each time. Besides, the TGI in experiment [7], in experiment [8], in experiment [9] and in experiment [10] was more than 100 µM in each case.

As for `CN1B(c2ccccc2)N(C)C(=O)N(C)C1=O`, the TGI in [1], in experiment [2], in [3], in experiment [4], in experiment [5] and in experiment [6] was more than 100 µM in each case. Also, the TGI in experiment [7], in experiment [8], in experiment [9] and in [10] was more than 100 µM each time.

Take `CC[C@H](C)C1=C(OC(C)=O)[N@+]2([O-])Oc3ccc(-c4c(OC(C)=O)c(OC(C)=O)c(-c5ccc(OC(C)=O)cc5)c(OC(C)=O)c4OC(C)=O)cc3O[C@]2([C@@H](C)CC)C(=O)N1OC(C)=O`: the TGI in [1], in experiment [2], in [3], in experiment [4], in [5] and in experiment [6] was more than 50 µM each time. The TGI is 32 µM in experiment [7], 37.6 µM in experiment [8], more than 50 µM in [9] and more than 50 µM in experiment [10].

As for `O=S(=O)(/N=C(\NO)Nc1ccc(Cl)cc1)c1ccc(-c2ccccn2)s1`, the TGI in experiment [1] was 72.9 µM; in [2], more than 100 µM; in experiment [3], more than 100 µM; in [4] it was more than 100 µM; in [5], more than 100 µM; in experiment [6], more than 100 µM. Further, the TGI in [7], in experiment [8], in experiment [9] and in experiment [10] was more than 100 µM throughout.

In the case of `CCOP(=O)(OCC)C(Nc1ccc(F)cc1)c1ccccc1` (stereo not given), the TGI in experiment [1], in experiment [2], in experiment [3], in experiment [4], in [5] and in [6] was more than 100 µM in each case. Also, the TGI in experiment [7], in experiment [8], in [9] and in experiment [10] was more than 100 µM each time.

Regarding `C=CC1(c2ccc(OC)cc2)OCCCO1`, the TGI in experiment [1], in [2], in experiment [3], in [4], in experiment [5] and in [6] was more than 100 µM throughout. In addition, the TGI in experiment [7], in experiment [8], in experiment [9] and in experiment [10] was more than 100 µM throughout.

As for `OC(CN1CCCCC1)c1ccc(/C=C/c2ccc(Cl)cc2)cc1` (stereo not given), the TGI in experiment [1] is more than 100 µM; in [2] it was 76.3 µM; in [3] it was more than 100 µM; in experiment [4], 46.7 µM; in experiment [5], more than 100 µM; in experiment [6], more than 100 µM. Besides, the TGI in [7], in experiment [8], in [9] and in experiment [10] was more than 100 µM in each case.
